These results are taken from publication PMC9787943, “Calcium-Dependent Interplay of Lithium and Tricyclic Antidepressants, Amitriptyline and Desipramine, on N-methyl-D-aspartate Receptors” (International Journal of Molecular Sciences, 2022).

Read-outs that look alike come from different tables or passages of the source.

The subject of the assay is T1, native di- and triheteromeric NMDARs composed of GluN1, GluN2A, and GluN2B subunits.
T1 construct: gene Grin1; native receptors in primary cultured cortical neurons (from fetal brains of 17-day pregnant rats, 10-14 days in culture); mixture of di- and triheteromers, heterotetramers with two GluN1 (known biology)
In words: whole-cell patch clamp of cultured neurons, NMDA-elicited currents. The conditions noted are these: Na+ solution without Li+, 100 μM NMDA + 30 μM glycine, -70 mV, pH 7.2-7.4, 22-25 °C, no BAPTA, mode: Ca2+-dependent desensitization (paper suggests indirect, via NCX) plus open-channel bloc. The assay is classed as cell-based, Rattus norvegicus. The source says:
whole-cell patch clamp of cultured neurons, NMDA-elicited currents on native di- and triheteromeric NMDARs composed of GluN1, GluN2A, and GluN2B subunits
Background: Patch clamp records ionic current or voltage across a cell membrane.

Take `CN(C)CCC=C1c2ccccc2CCc2ccccc21` [Amitriptyline]: the IC50 (as a rule, the concentration that inhibits the measured activity by half) (2 mM Ca2+, read-out: IC50 ATL) came out at 5 ± 1 µM. `CNCCCN1c2ccccc2CCc2ccccc21` [Desipramine]: the IC50 (1 mM Ca2+, read-out: IC50 DES) was found to be 1.75 ± 0.17 µM.
